Biological target: T1, A disintegrin and metalloproteinase with thrombospondin motifs 5 (Homo sapiens, UniProt Q9UNA0)
T1 sequence (Q9UNA0 whole entry): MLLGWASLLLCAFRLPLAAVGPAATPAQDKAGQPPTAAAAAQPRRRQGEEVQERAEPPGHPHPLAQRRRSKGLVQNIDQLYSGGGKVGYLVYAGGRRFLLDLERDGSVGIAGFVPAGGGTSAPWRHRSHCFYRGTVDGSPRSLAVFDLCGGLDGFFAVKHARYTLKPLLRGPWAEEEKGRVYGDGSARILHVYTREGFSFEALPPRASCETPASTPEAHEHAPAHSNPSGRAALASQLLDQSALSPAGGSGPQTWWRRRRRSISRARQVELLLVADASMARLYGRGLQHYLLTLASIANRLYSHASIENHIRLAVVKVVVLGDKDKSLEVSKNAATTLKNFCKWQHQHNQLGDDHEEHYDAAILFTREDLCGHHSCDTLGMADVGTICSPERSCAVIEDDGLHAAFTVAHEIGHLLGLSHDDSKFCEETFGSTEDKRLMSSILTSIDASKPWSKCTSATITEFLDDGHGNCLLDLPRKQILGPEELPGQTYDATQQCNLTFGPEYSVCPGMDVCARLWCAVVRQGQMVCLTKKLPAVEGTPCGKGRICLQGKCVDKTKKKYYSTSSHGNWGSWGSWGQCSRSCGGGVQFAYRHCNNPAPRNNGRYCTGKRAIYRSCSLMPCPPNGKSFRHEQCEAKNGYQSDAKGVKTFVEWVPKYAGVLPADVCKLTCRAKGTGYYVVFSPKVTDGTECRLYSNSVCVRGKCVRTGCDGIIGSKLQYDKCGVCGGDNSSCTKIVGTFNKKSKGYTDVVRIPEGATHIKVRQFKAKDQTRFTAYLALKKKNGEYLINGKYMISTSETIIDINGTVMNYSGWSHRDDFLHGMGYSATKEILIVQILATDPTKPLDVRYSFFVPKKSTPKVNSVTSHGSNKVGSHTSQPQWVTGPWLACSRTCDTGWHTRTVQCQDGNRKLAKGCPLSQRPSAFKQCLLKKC
Assay: Inhibition of ADAMTS5

IC50	Structure (SMILES)
> 67 µM	O=C1/C(=C\c2ccc(OCc3ccccc3)c(OCc3ccccc3)c2)SC(=S)N1Cc1ccccc1
20.1 µM	O=C1NC(=S)S/C1=C/c1cccc(OCc2ccccc2)c1
1.8 µM	O=C1NC(=S)S/C1=C/c1ccc(OCc2ccccc2)c(OCc2ccccc2)c1
1.4 µM	O=C1NC(=S)S/C1=C/c1cc(OCc2ccccc2)cc(OCc2ccccc2)c1
> 22 µM	COc1cc(/C=C2/SC(=S)NC2=O)ccc1OCc1ccccc1
11.6 µM	COc1ccc(COc2ccc(/C=C3/SC(=S)NC3=O)cc2OC)cc1
> 22 µM	O=C1NC(=S)S/C1=C/c1cccc(Oc2ccccc2)c1
4.9 µM	O=C1NC(=S)S/C1=C/c1cccc(Oc2ccc(Cl)cc2)c1
14.8 µM	Cc1ccc(Oc2cccc(/C=C3/SC(=S)NC3=O)c2)cc1
1.7 µM	CC(C)(C)c1ccc(Oc2cccc(/C=C3/SC(=S)NC3=O)c2)cc1
5.3 µM	O=C(O)CCN1C(=O)/C(=C\c2ccc(OCc3ccccc3)c(OCc3ccccc3)c2)SC1=S
2.5 µM	O=C1NC(=S)S/C1=C/c1cccc(Oc2cc(Cl)cc(Cl)c2)c1
> 22 µM	O=C1NC(=O)/C(=C\c2cccc(Oc3ccc(Cl)cc3)c2)S1
10 µM	O=C1NC(=O)/C(=C\c2cccc(Oc3ccc(Cl)c(Cl)c3)c2)S1
9.2 µM	O=C1NC(=O)/C(=C\c2cccc(Oc3cc(Cl)cc(Cl)c3)c2)S1
> 67 µM	O=C1/C(=C\c2ccc(OCc3ccccc3)c(OCc3ccccc3)c2)SC(=S)N1CCc1ccccc1
1.1 µM	CC(C)[C@H](C(=O)O)N1C(=O)/C(=C\c2ccc(OCc3ccccc3)c(OCc3ccccc3)c2)SC1=S
11.1 µM	O=C(O)CN1C(=O)/C(=C\c2cccc(Oc3ccc(Cl)c(Cl)c3)c2)SC1=S

IC50	Structure (SMILES)
> 67 µM	O=C1NC(=O)/C(=C\c2cccc(Oc3ccc(Cl)cc3)c2)N1
> 67 µM	O=C1NC(=O)/C(=C\c2cccc(Oc3cc(Cl)cc(Cl)c3)c2)N1
> 67 µM	CC(C)(C)c1ccc(Oc2cccc(/C=C3/NC(=O)NC3=O)c2)cc1
> 22 µM	CN1C(=O)NC(=O)/C1=C\c1cccc(Oc2ccc(Cl)cc2)c1
1.3 µM	O=C(O)[C@@H](Cc1ccccc1)N1C(=O)/C(=C\c2ccc(OCc3ccccc3)c(OCc3ccccc3)c2)SC1=S
1.3 µM	O=C(O)C(c1ccccc1)N1C(=O)/C(=C\c2cccc(Oc3ccc(Cl)c(Cl)c3)c2)SC1=S (stereo unspecified)
1.6 µM	O=C(O)[C@@H](Cc1ccccc1)N1C(=O)/C(=C\c2cccc(Oc3ccc(Cl)c(Cl)c3)c2)SC1=S
0.9 µM	O=C(O)C(c1ccccc1)N1C(=O)/C(=C\c2ccc(OCc3ccccc3)c(OCc3ccccc3)c2)SC1=S (stereo unspecified)
3.5 µM	COc1cc(/C=C2/SC(=S)NC2=O)ccc1OCc1ccc(Cl)cc1
16.2 µM	COc1ccc(Oc2cccc(/C=C3/SC(=S)NC3=O)c2)cc1
1.8 µM	CC(C)[C@H](C(=O)O)N1C(=O)/C(=C\c2cccc(Oc3ccc(Cl)c(Cl)c3)c2)SC1=S
3.2 µM	O=C1NC(=S)S/C1=C/c1cccc(Oc2ccc(Cl)c(Cl)c2)c1
5.3 µM	O=C1NC(=S)S/C1=C/c1cccc(Oc2ccc(C(F)(F)F)cc2)c1
6.7 µM	O=C(O)CN1C(=O)/C(=C\c2ccc(OCc3ccccc3)c(OCc3ccccc3)c2)SC1=S
> 67 µM	O=C1/C(=C\c2ccc(OCc3ccccc3)c(OCc3ccccc3)c2)SC(=S)N1c1ccccc1
6.8 µM	CC(C)(C)c1ccc(Oc2cccc(/C=C3/SC(=O)NC3=O)c2)cc1
> 67 µM	CCN1C(=O)/C(=C\c2ccc(OCc3ccccc3)c(OCc3ccccc3)c2)SC1=S

Structure (SMILES)	IC50
CN1C(=O)/C(=C\c2ccc(OCc3ccccc3)c(OCc3ccccc3)c2)SC1=S	> 67 µM

Source: ChEMBL document CHEMBL1144597, “Synthesis and evaluation of aryl thioxothiazolidinone inhibitors of ADAMTS-5 (Aggrecanase-2)” (Bioorg Med Chem Lett, 2007)
